Results: patent US10302663B2, “Method of assessing pancreatic beta-cell function” (METABOLON, INC., priority 2011, dated 2019)

What was measured:
INS-1e cells = test: Glucose-stimulated insulin release in INS-1e cells; assay type: cell-based, rat; details: INS-1e cells incubated 48 h with physiological concentrations of metabolite, then 3.3, 11, 20 mM glucose or 20 mM glucose+10 mM arginine, FIG. 2
Protocol: Clonal INS-1e cells, derived and selected from a parental rat insulinoma INS-1 cell line (University of Geneva, Geneva, Switzerland), were grown in monolayer culture in RPMI 1640 medium containing 11.1 mM glucose. The culture medium was supplemented with 10% heat-inactivated fetal calf serum, 1 mM sodium pyruvate, 10 mM HEPES, 2 mM glutamine, 50 μmol/liter β-mercaptoethanol, 100 U/ml penicillin, and 100 μg/ml streptomycin. Cells were cultured at 37 C in a humidified 95% air-5% CO2 atmosphere. Cells were seeded onto wells at a density of 1.5×10^5 cells/well at least 96 h before using them in the insulin secretion experiments. Tissue culture reagents were obtained from Life Technologies, Inc. Invitrogen (Basel, Switzerland).
The insulin secretory response to glucose was tested in INS-1e cells. When cells had reached approximately 80% confluence, cells were incubated for 48 h in fresh RPMI 1640 medium containing 11.1 mM glucose, in the presence or absence of different physiological concentrations of metabolites alpha-hydroxybutyrate (2-HB) (Sigma-Aldrich) and linoleoyl-glycerophosphocholine (L-GPC) (Avanti Polar Lipids). Next, cells were maintained for 1 h in glucose-free Krebs-Ringer bicarbonate HEPES buffer containing 135 mm NaCl, 3.6 mm KCl, 5 mm NaHCO3, 0.5 mm Na H2PO4, 0.5 mm MgCl2, 1.5 mm CaCl2, 10 mm HEPES, and BSA 0.1% (glucose-free; pH 7.4; starvation period) and then washed with glucose-free Krebs-Ringer bicarbonate-HEPES buffer and subsequently incubated for […] with Krebs-Ringer bicarbonate-HEPES buffer containing 3.3, 11, 20 mM glucose, or 20 mM glucose+10 mM arginine. At the end of incubation, supernatants were collected to measure insulin concentration (Linco Research, St. Charles, Mo.). Cellular insulin contents were determined in acid-ethanol extracts. The insulin secretory response to glucose was expressed as the ratio of insulin concentration in the supernatant to the cellular insulin content.

[1] = Beta-cell biomarker levels in fasted plasma in response to pioglitazone therapy in IGT subjects; assay type: in vivo, human; details: pioglitazone 45 mg/day, 2.4 years, baseline vs study end
Protocol: In another study, the relationship between changes in the IS/IR Disposition index and changes in the levels of the beta-cell function biomarkers, AHB and LGPC following drug treatment were determined. The study cohort consisted of 431 IGT subjects (FPG=105, 2-h PG [OGTT]=168, HbA1C=5.5%) who were randomized to pioglitazone (45 mg/day) or placebo and followed for 2.4 years. Fasted plasma samples were analyzed at baseline and study end for AHB, LGPC, insulin, HbA1c and Matsuda index.
A method for measuring each of the biomarkers listed in Table 4 in EDTA human plasma was developed. Human plasma samples were spiked with internal standards and subjected to protein precipitation as described below. Following centrifugation, the supernatant was removed and injected onto a Waters Acquity/Thermo Quantum Ultra LC-MS-MS system using four different chromatographic systems (column/mobile phase combinations).

Structure (SMILES)	effect on glucose-stimulated insulin release (ratio of insulin in supernatant to cellular insulin content) (INS-1e cells)	effect on glucose-stimulated insulin release (ratio of insulin in supernatant to cellular insulin content) (INS-1e cells; listed as 2-hydroxybutyrate)	effect on glucose-stimulated insulin release (ratio of insulin in supernatant to cellular insulin content) (INS-1e cells; listed as Linoleoyl-GPC)	Fold change of Linoleoyl-GPC Before and after PIO ([1]; p<0.005)	Fold change of α-HB Before and after PIO ([1]; p=0.001)
CC[C@H](O)C(=O)O [AHB, 2-hydroxybutyrate]	inhibited the glucose stimulated release of insulin	inhibitory effect			
CCCCC/C=C\C/C=C\CCCCCCCC(=O)OC[C@@H](O)COP(=O)([O-])OCC[N+](C)(C)C [LGPC, linoleoyl lysophosphatidylcholine]	stimulated the glucose stimulated release of insulin		stimulatory effect		
CCc1ccc(CCOc2ccc(CC3SC(=O)NC3=O)cc2)nc1 (stereo not drawn) [PIO, pioglitazone]				1.21 ↑	0.90 ↓
